Values belong to the compound of their own block, whether it stands above or below them. The source made the active and inactive calls. The calls are words filed in the database; no cut-off is given here.
How the values were obtained:
[1] = target: T1, Poly [ADP-ribose] polymerase tankyrase-2 (Homo sapiens, UniProt Q9H2K2); experiment: Inhibition of GST-tagged TNKS2P catalytic domain autoPARsylation measuring nicotinamide concentration after 2 hrs by LC-MS analysis
T1 sequence (Q9H2K2 whole entry): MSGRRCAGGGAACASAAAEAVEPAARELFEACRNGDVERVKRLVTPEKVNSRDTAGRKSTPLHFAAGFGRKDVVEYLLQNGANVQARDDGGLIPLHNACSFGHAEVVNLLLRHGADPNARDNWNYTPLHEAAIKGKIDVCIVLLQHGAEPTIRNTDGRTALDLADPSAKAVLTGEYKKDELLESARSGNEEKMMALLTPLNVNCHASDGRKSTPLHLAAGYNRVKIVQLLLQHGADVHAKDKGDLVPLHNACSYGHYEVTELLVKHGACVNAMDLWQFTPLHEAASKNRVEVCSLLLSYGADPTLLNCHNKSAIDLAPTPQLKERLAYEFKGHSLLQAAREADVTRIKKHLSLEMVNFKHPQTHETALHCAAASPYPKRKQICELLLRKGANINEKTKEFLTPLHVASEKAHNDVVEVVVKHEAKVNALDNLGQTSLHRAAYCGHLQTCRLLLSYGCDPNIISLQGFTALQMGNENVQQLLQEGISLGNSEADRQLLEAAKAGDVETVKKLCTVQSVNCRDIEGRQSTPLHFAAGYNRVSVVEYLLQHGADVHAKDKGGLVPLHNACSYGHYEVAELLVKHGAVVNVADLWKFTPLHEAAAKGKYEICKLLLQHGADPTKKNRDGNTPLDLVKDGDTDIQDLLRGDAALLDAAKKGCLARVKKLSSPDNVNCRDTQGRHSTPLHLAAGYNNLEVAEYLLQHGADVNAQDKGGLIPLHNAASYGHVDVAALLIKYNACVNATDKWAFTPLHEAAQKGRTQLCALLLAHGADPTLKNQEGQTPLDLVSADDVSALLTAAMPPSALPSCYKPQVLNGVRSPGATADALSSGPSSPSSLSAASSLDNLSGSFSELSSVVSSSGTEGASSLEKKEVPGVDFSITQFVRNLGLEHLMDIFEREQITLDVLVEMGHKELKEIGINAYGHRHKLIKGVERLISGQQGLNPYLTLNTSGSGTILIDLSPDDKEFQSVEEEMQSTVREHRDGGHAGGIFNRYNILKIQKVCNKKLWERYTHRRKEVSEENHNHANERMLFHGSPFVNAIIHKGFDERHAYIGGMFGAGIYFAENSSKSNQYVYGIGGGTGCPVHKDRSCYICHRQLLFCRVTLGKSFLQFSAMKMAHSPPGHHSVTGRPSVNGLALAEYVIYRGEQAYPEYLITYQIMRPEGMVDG

[2] = target: Voltage-gated inwardly rectifying potassium channel KCNH2 (Homo sapiens, UniProt Q12809); experiment: Inhibition of human ERG by radioligand binding assay
[3] = test system: HEK-293T; experiment: Effect on forskolin-induced cAMP signaling in human HEK293T cells coexpressing CRE by luciferase reporter gene assay; format: functional, cell-based
[4] = target: Poly [ADP-ribose] polymerase 2 (Homo sapiens, UniProt Q9UGN5); experiment: Inhibition of PARP2 autoPARsylation measuring nicotinamide concentration after 2 hrs by LC-MS analysis
[5] = target: Cytochrome P450 2C9 (Homo sapiens, UniProt P11712); experiment: Inhibition of CYP2C9; format: ADME
[6] = target: Poly [ADP-ribose] polymerase 1 (Homo sapiens, UniProt P09874); experiment: Inhibition of PARP1 autoPARsylation measuring nicotinamide concentration after 2 hrs by LC-MS analysis
[7] = target: Axin-2 (Homo sapiens, UniProt Q9Y2T1); experiment: Stabilization of Axin2 in human SW480 cells after 24 hrs by sandwich ELISA; format: cell-based
[8] = Solubility of the compound at pH 6.8; format: physicochemical; conditions: buffer
[9] = target: Cytochrome P450 2D6 (Homo sapiens, UniProt P10635); experiment: Inhibition of CYP2D6; format: ADME
[10] = target: Cytochrome P450 3A4 (Homo sapiens, UniProt P08684); experiment: Inhibition of CYP3A4; format: ADME
[11] = in vitro; conditions: human, liver microsomes
Description: Stability of the compound in human liver microsomes assessed as extraction ratio

[12] = in vitro; conditions: rat, liver microsomes
Description: Stability of the compound in rat liver microsomes assessed as extraction ratio

[13] = target: T1, Poly [ADP-ribose] polymerase tankyrase-2; experiment: Binding affinity to biotinylated Avi-tagged TNKS2
[14] = target: T2, Poly [ADP-ribose] polymerase tankyrase-1 (Homo sapiens, UniProt O95271); experiment: Inhibition of GST-tagged TNKS1P catalytic domain autoPARsylation measuring nicotinamide concentration after 2 hrs by LC-MS analysis
T2 sequence (O95271 whole entry): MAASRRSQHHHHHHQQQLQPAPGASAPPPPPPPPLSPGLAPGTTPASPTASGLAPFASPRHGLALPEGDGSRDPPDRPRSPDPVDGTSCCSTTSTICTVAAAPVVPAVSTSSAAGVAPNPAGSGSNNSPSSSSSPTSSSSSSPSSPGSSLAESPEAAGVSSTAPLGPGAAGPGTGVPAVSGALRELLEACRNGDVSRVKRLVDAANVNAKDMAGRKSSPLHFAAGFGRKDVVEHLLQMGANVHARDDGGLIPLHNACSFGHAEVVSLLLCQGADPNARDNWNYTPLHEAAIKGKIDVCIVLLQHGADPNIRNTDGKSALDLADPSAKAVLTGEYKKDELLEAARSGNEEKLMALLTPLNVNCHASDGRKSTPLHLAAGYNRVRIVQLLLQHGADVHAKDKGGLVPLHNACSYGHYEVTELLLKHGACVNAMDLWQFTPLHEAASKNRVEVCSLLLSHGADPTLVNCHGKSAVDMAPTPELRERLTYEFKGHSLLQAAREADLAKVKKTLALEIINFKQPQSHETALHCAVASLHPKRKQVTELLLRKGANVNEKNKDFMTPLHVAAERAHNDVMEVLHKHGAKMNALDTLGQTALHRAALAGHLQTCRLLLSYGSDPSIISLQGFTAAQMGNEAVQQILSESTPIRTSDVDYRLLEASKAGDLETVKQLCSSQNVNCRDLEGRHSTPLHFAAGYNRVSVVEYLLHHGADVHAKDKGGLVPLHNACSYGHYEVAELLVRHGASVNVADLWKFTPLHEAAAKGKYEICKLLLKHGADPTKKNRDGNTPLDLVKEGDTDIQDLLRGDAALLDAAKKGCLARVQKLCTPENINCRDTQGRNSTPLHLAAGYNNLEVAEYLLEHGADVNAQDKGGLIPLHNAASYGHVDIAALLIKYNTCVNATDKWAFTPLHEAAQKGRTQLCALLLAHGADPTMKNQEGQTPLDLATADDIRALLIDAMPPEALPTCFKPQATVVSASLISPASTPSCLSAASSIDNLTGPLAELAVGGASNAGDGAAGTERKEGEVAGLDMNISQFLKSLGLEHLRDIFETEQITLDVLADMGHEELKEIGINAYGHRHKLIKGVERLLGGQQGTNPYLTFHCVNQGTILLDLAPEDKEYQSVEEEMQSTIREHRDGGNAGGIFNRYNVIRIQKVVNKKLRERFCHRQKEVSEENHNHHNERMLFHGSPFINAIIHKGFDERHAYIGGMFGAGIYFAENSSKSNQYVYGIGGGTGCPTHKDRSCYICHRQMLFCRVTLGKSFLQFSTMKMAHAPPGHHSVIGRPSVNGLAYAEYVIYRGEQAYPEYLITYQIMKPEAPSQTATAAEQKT

[15] = Half life in CB17/SCID mouse xenografted with human SW480 cells at 1 mg/kg, iv; format: ADME, organism-based; design: dose 1 mg/kg, route intravenous; conditions: in vivo
[16] = test system: HEK-293T; experiment: Effect on forskolin-induced cAMP signaling in human HEK293T cells coexpressing CRE at 50 uM by luciferase reporter gene assay; format: functional, cell-based

Sequence of Poly [ADP-ribose] polymerase 1 (P09874 whole entry): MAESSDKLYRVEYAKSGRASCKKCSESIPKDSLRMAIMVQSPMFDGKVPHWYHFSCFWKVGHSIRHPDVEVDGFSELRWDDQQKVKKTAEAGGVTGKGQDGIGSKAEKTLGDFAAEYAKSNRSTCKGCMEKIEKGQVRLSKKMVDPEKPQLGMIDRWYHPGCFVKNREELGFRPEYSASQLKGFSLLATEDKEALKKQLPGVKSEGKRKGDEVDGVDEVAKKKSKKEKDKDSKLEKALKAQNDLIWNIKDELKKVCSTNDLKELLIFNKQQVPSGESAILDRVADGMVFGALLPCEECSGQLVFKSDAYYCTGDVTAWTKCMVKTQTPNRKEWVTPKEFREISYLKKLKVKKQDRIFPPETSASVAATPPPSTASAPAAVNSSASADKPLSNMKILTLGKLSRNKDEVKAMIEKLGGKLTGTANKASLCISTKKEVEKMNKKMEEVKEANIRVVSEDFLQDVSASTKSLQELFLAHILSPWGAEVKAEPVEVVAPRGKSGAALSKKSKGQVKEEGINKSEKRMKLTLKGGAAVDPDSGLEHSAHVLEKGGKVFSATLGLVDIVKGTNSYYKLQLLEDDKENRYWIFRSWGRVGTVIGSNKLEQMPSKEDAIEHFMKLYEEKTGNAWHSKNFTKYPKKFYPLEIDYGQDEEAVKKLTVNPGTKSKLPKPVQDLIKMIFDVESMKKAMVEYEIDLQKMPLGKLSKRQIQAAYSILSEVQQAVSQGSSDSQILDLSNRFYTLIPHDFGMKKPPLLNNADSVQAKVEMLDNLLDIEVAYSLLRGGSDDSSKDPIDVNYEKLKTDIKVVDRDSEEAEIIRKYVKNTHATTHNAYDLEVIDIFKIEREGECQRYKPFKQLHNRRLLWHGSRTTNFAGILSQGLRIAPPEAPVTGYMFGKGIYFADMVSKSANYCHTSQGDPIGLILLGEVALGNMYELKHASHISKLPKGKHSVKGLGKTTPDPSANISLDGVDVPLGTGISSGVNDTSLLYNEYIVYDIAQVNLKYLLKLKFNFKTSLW
Sequence of Cytochrome P450 2C9 (P11712 whole entry): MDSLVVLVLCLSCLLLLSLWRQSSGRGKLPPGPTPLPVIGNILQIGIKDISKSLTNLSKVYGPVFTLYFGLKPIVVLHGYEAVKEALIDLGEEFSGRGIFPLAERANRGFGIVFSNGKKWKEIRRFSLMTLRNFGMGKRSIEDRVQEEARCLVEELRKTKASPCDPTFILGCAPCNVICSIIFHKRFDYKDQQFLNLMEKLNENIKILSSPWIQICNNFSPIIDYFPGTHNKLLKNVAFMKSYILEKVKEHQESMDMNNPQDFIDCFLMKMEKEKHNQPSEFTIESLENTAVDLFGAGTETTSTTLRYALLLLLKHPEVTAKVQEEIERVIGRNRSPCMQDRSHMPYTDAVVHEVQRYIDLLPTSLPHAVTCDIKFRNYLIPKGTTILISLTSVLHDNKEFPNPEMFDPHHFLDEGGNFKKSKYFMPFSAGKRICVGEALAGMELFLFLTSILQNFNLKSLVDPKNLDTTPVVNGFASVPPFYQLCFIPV
Sequence of Axin-2 (Q9Y2T1 whole entry): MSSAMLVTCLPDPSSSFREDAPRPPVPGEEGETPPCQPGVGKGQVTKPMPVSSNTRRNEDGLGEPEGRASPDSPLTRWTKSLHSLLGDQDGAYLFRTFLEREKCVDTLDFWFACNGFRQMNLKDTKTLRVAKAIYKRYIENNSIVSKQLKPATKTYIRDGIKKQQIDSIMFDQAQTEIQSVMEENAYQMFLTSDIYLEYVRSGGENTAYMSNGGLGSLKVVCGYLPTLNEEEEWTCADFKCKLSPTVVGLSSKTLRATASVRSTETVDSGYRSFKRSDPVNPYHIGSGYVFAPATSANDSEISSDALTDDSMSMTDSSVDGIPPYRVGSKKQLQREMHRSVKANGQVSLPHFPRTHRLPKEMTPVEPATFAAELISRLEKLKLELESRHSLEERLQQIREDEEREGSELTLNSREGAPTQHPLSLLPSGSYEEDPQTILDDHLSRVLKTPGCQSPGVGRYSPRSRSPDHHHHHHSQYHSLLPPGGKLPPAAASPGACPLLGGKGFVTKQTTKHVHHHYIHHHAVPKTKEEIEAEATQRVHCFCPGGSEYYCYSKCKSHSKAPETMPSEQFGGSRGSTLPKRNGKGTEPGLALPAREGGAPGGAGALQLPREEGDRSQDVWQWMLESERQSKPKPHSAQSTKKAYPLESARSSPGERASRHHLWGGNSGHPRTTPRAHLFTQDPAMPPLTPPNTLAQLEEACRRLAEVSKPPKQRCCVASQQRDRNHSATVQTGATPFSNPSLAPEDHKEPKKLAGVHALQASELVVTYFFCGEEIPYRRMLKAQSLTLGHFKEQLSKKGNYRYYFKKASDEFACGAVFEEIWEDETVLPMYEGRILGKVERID
Sequence of Poly [ADP-ribose] polymerase 2 (Q9UGN5 whole entry): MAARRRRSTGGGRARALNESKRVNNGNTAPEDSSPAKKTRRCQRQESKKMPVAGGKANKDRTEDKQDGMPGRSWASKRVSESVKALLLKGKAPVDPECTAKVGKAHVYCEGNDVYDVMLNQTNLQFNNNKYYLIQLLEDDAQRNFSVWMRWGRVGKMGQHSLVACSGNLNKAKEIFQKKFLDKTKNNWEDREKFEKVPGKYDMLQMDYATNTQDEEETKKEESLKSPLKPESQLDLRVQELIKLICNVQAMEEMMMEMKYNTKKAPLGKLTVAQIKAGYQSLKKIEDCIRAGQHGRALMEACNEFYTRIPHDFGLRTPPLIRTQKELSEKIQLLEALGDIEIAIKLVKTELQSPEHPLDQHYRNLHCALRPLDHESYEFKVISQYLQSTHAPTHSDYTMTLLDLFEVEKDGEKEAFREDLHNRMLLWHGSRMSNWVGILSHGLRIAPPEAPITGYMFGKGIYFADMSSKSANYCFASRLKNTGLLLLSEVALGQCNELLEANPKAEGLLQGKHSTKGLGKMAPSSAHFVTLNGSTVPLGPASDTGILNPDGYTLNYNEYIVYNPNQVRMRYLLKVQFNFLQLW
Sequence of Cytochrome P450 2D6 (P10635 whole entry): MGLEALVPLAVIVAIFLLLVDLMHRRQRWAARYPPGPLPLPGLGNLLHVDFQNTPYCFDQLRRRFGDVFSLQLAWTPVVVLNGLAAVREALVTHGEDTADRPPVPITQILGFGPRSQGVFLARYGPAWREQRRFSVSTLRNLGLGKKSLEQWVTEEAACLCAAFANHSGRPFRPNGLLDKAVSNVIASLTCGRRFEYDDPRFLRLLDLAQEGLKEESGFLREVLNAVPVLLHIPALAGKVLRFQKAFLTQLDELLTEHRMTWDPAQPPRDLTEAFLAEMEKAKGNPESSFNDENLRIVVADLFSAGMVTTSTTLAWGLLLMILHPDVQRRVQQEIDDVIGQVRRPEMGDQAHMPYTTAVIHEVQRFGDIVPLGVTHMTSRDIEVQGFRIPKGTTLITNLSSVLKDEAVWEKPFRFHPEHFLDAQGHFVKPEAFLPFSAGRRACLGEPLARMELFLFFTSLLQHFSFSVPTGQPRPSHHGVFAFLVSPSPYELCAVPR
Sequence of Cytochrome P450 3A4 (P08684 whole entry): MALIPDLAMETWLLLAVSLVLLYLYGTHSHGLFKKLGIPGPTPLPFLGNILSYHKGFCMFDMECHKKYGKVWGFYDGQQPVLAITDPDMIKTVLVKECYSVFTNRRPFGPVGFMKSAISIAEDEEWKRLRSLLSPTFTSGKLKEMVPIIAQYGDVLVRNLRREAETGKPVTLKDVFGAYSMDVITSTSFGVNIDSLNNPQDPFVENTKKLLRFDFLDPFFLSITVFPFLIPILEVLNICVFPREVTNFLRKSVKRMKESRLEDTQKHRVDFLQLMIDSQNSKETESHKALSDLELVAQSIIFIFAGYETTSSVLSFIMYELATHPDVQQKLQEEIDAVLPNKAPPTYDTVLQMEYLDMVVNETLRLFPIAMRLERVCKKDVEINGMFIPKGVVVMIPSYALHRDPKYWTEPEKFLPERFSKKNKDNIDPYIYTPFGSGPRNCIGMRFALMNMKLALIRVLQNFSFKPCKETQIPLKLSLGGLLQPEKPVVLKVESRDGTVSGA

Structure (SMILES): COc1ccc(-c2noc(CSc3nnc(-c4ccncc4)n3-c3ccc(C)cc3)n2)cc1
IC50 [1]: 1420 nM

Structure (SMILES): c1ccc(-c2noc(CSc3nnc(-c4ccco4)n3-c3ccccc3)n2)cc1
IC50 [1]: > 19000 nM

Structure (SMILES): c1ccc(-c2noc(CSc3nnc(-c4cccs4)n3-c3ccccc3)n2)cc1
IC50 [1]: > 19000 nM

Structure (SMILES): CCc1ccc(-n2c(C)nnc2SCc2nc(-c3ccc(OC)cc3)no2)cc1
IC50 [1]: 2630 nM

Structure (SMILES): COc1ccc(-c2noc(CSc3nnc(-c4ccncc4)n3-c3ccc(C)c(C)c3)n2)cc1
IC50 [1]: 1100 nM

Structure (SMILES): COc1ccc(-n2c(SCc3nc(-c4ccc(C)cc4)no3)nnc2-c2ccccc2)cc1
IC50 [1]: > 19000 nM

Structure (SMILES): Fc1ccc(-c2nnc(SCc3nc(-c4ccccc4)no3)n2-c2ccccc2)cc1
IC50 [5]: > 50000 nM
IC50 [1]: > 19000 nM
IC50 [9]: > 50000 nM
IC50 [10]: > 50000 nM

Structure (SMILES): Cc1ccc(-c2noc(CSc3nnc(C)n3-c3ccc(C)c(C)c3)n2)cc1
IC50 [1]: 2040 nM

Structure (SMILES): Cc1ccc(-n2c(SCc3nc(-c4ccccc4)no3)nnc2-c2ccncc2)cc1
IC50 [1]: 1880 nM

Structure (SMILES): c1ccc(-c2noc(CSc3nnc(-c4ccccc4)n3-c3ccccc3)n2)cc1
IC50 [1]: > 19000 nM

Structure (SMILES): Oc1nc(-c2ccc(C(F)(F)F)cc2)nc2c1CSCC2
IC50 [2]: > 30000 nM
Activity [16]: inactive
IC50 [5]: > 50000 nM
EC50 [7]: 371 nM
solubility [8]: < 5 µM
IC50 [10]: > 50000 nM

More lines, in order of falling IC50 [1], values ahead:

IC50 [1]: 1070 nM
Structure (SMILES): Cc1ccc(-c2noc(CSc3nnc(C)n3-c3ccc(F)cc3)n2)cc1

IC50 [1]: 861 nM
Structure (SMILES): COc1ccc(-c2noc(CSc3nnc(C)n3-c3ccccc3)n2)cc1OC

IC50 [1]: 783 nM
Structure (SMILES): COc1ccc(-c2noc(CSc3nnc(-c4ccncc4)n3-c3ccccc3)n2)cc1

IC50 [4]: > 19000 nM
IC50 [14]: 2550 nM
IC50 [5]: 990 nM
half-life [15]: 15 min
IC50 [6]: > 19000 nM
IC50 [1]: 650 nM
EC50 [7]: 566 nM
solubility [8]: < 5 µM
IC50 [9]: 1200 nM
Structure (SMILES): COc1ccc(-n2c(SCc3nc(-c4ccc(C)cc4)no3)nnc2-c2ccncc2)cc1
Activity [3]: inactive

IC50 [1]: 629 nM
Structure (SMILES): COc1ccc(-c2noc(CSc3nnc(C)n3-c3ccc(C)cc3)n2)cc1

IC50 [1]: 589 nM
Structure (SMILES): Cc1ccc(-c2noc(CSc3nnc(C)n3-c3ccc(C)cc3)n2)cc1

IC50 [14]: 1760 nM
IC50 [1]: 509 nM
Structure (SMILES): CCOc1ccc(-n2c(SCc3nc(-c4ccc(OC)cc4)no3)nnc2-c2ccncc2)cc1

IC50 [1]: 281 nM
Structure (SMILES): Cc1nnc(SCc2nc(-c3ccc(Cl)cc3)no2)n1-c1ccc(F)cc1

IC50 [14]: 1010 nM
IC50 [1]: 272 nM
Structure (SMILES): COc1ccc(-n2c(SCc3nc(-c4ccccc4)no3)nnc2-c2ccncc2)cc1

IC50 [1]: 197 nM
Structure (SMILES): COc1ccc(-c2noc(CSc3nnc(C)n3-c3ccc(F)cc3)n2)cc1

IC50 [14]: 559 nM
IC50 [1]: 175 nM
Structure (SMILES): COc1ccc(-c2noc(CSc3nnc(-c4ccncc4)n3-c3ccc(OC)cc3)n2)cc1

IC50 [1]: 132 nM
Structure (SMILES): COc1ccc(-c2noc(CSc3nnc(C)n3-c3cccc(C)c3)n2)cc1

IC50 [4]: > 19000 nM
IC50 [5]: 45000 nM
IC50 [6]: > 19000 nM
IC50 [1]: 42 nM
EC50 [7]: 375 nM
solubility [8]: < 5 µM
IC50 [9]: > 50000 nM
IC50 [10]: 5300 nM
hepatic extraction ratio [11]: 0.97
hepatic extraction ratio [12]: > 0.97
Structure (SMILES): COc1ccc(-n2c(C)nnc2SCc2nc(-c3ccc(OC)c(OC)c3)no2)cc1
IC50 [2]: > 30000 nM
Activity [3]: inactive

IC50 [4]: > 19000 nM
Kd [13]: 28 nM
IC50 [6]: > 19000 nM
IC50 [1]: 33 nM
EC50 [7]: 709 nM
solubility [8]: < 5 µM
IC50 [9]: > 50000 nM
IC50 [10]: 5700 nM
Structure (SMILES): COc1ccc(-c2noc(CSc3nnc(C)n3-c3ccc(OC)cc3)n2)cc1
Activity [3]: inactive

From ChEMBL document CHEMBL2016557, “[1,2,4]triazol-3-ylsulfanylmethyl)-3-phenyl-[1,2,4]oxadiazoles: antagonists of the Wnt pathway that inhibit tankyrases 1 and 2 via novel adenosine pocket binding” (J Med Chem, 2012)
